Measurements published in the NIST ThermoML archive (doi:10.1016/j.jct.2012.12.026).
Numbers after ± are expanded uncertainties.

Details: Liquid, Closed cell (Static) method

FC(F)C(F)F [1,1,2,2-tetrafluoroethane]
vapor or sublimation pressure (278.15 K): 271.3 ± 1.3 kPa | vapor or sublimation pressure (288.15 K): 382.9 ± 1.5 kPa

F/C=C/C(F)(F)F [trans-1,3,3,3-tetrafluoropropene]
vapor or sublimation pressure (258.15 K): 120.2 ± 1 kPa | vapor or sublimation pressure (268.15 K): 179.3 ± 1 kPa | vapor or sublimation pressure (278.15 K): 259.2 ± 1.1 kPa | vapor or sublimation pressure (288.15 K): 364.2 ± 1.1 kPa
